Tested on: A549 cells
Assay: Combination dose-matrix cell viability assay (CellTiter-Blue / alamar blue), A549
Assay type: cell-based
Conditions: in the presence of increasing concentrations of cladribine
Excerpt: The inhibition ranges from 0% at the untreated level to 100% when T=0.
This effectively calculates a volume between the measured and Loewe additive response surfaces, weighted towards high inhibition and corrected for varying dilution factors.

Structure (SMILES): CCN1CCN(Cc2ccc(-c3cc4c(N[C@H](C)c5ccccc5)ncnc4[nH]3)cc2)CC1 [{6-[4-(4-ethyl-piperazin-1-ylmethyl)-phenyl]-7H-pyrrolo[2,3-d]pyrimidin-4-yl]-((R)-1-phenyl-ethyl)-amine]
- change in potency of the Erb-B/VEGF inhibitor: significant increase in the potency

Source: patent publication US20090099103A1, “COMBINATIONS OF THERAPEUTIC AGENTS FOR TREATING CANCER” (NOVARTIS AG., priority 2006, published 2009)
